Measured values reported in the NIST ThermoML archive (doi:10.1021/acs.jced.8b00163).
Several values for one entry are separate records, joined by “and”; a condition that tells them apart may be missing. Identical values can stand only once.

Conditions: for mass density: 100 kPa, Vibrating tube method; for mass density / viscosity: Liquid; for surface tension liquid-gas / viscosity: Surface laser light scattering (SLLS)

CCCCCCCC(C)C [2-methylnonane]
Conditions	mass density	surface tension liquid-gas [mN/m]	viscosity [mPa·s]
283.15 K	735.134 kg/m3	–	–
288.15 K	731.326 kg/m3	–	–
293.15 K	727.469 kg/m3	–	–
298.15 K	723.54 kg/m3 and 723.632 kg/m3	21.45	0.8268
303.15 K	719.96 kg/m3	–	–
308.15 K	716.109 kg/m3	–	–
313.15 K	712.275 kg/m3	–	–
318.15 K	708.49 kg/m3	–	–
323.15 K	704.14 kg/m3 and 704.628 kg/m3	19.65	0.6035
328.15 K	700.722 kg/m3	–	–
333.15 K	696.794 kg/m3	–	–
338.15 K	692.852 kg/m3	–	–
343.15 K	688.883 kg/m3	–	–
348.15 K	684.896 kg/m3 and 684.45 kg/m3	17.76	0.4629
353.15 K	680.89 kg/m3	–	–
358.15 K	676.827 kg/m3	–	–
363.15 K	672.811 kg/m3	–	–
373.15 K	664.34 kg/m3	15.75	0.3623
398.15 K	643.46 kg/m3	13.64	0.2897
423.15 K	621.59 kg/m3	11.72	0.2365
448.15 K	–	9.9	0.1989

CCCCCC(C)CCC (stereo not drawn) [4-methylnonane]
Conditions	mass density	surface tension liquid-gas [mN/m]	viscosity [mPa·s]
283.15 K	739.362 kg/m3	–	–
288.15 K	735.555 kg/m3	–	–
293.15 K	731.743 kg/m3	–	–
298.15 K	728.35 kg/m3 and 727.929 kg/m3	21.67	0.7638
303.15 K	724.098 kg/m3	–	–
308.15 K	720.253 kg/m3	–	–
313.15 K	716.396 kg/m3	–	–
318.15 K	712.527 kg/m3	–	–
323.15 K	708.82 kg/m3 and 708.634 kg/m3	20.06	0.5533
328.15 K	704.729 kg/m3	–	–
333.15 K	700.808 kg/m3	–	–
338.15 K	696.873 kg/m3	–	–
343.15 K	692.918 kg/m3	–	–
348.15 K	688.94 kg/m3 and 689 kg/m3	17.93	0.4161
353.15 K	684.943 kg/m3	–	–
358.15 K	680.922 kg/m3	–	–
363.15 K	676.877 kg/m3	–	–
373.15 K	668.81 kg/m3	15.92	0.3279
398.15 K	647.86 kg/m3	13.77	0.2644
423.15 K	626 kg/m3	11.89	0.2168
448.15 K	–	9.95	0.1801
